A value given as a limit tells only on which side of the number the result lay.

In test [1] the target is T1, glutathione S-transferase (GST)-linked full-length human Syk protein (Homo sapiens, UniProt P43405).
T1 construct: glutathione S-transferase (GST)-linked full-length human Syk protein; purchased Carna Biosciences; host or cells: Baculovirus expression system
In words: Syk enzyme assay. In kind it is biochemical. The conditions noted are these: 0.83 nM Syk, time-resolved fluorescence; read-out: IC50 of Syk-inhibitory activity. The method, boiled down:
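Phosphotyrosine on a biotin-peptide substrate (0.5 μM) was read by time-resolved fluorescence at 615 and 665 nm with Eu-anti-pTyr antibody and APC-streptavidin after 1 h EDTA stop.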

In test [2] the test system is THP-1 cells (TNFα secretion on human IgG-coated plate). As to the kind of experiment: TNFα generation assay. To be noted: IFN-γ differentiated THP-1 cells, 7 hours, AlphaLISA, read-out: IC50 of TNFα generation inhibitory activity. In kind it is cell-based. As to the method:
THP-1 cells (2×10^5 cells/ml), which were human monocytoid cells, were cultured in the presence of 10 ng/ml IFN-γ (Roche) for 2 days, and they were induced to differentiate into macrophage-like cells. The differentiation-induced THP-1 cells were recovered, and the cells (1×10^6 cell/ml) were then allowed to react with a predetermined concentration of test compound at room temperature for 30 minutes. On the other hand, 100 μl of human IgG (10 μg/ml, SIGMA-ALDRICH) diluted with PBS was added to a 96-well plate, and it was then incubated at room temperature overnight. Thereafter, the resultant was washed with PBS twice to produce a human IgG-coated plate. A cell fluid that contained a compound was plated on the obtained human IgG-coated plate (5×10^4 cells/well), and it was then cultured for 7 hours. Thereafter, the cultured solution was recovered, and the amount of TNFα secreted into the culture solution was then measured by the AlphaLISA method (PerkinElmer).
(In general: Bead proximity is the source of the signal in Alpha formats.)

Take `COc1cc(Nc2nc(N[C@H](C3CC3)[C@H](C)N)c(F)cc2C(N)=O)ccc1C` [Example 2-49, 6-(((1R,2S)-2-amino-1-cyclopropylpropyl)amino)-5-fluoro-2-((3-methoxy-4-methylphenyl)amino)nicotinamide]: the IC50 in test [1] was below 10 nM; in test [2], 130 to 200 nM.

Turning to `CNc1ncc(Nc2nc(N[C@@H]3CCCC[C@@H]3N)c(F)cc2C(N)=O)cc1F` [Example 2-273, 6-(((1R,2S)-2-aminocyclohexyl)amino)-5-fluoro-2-((5-fluoro-6-(methylamino)pyridin-3-yl)amino)nicotinamide], the results for the IC50 in test [1] and in test [2] were below 10 nM and 65 to 130 nM, respectively.

Take `CC(C)C[C@H](CN)Nc1nc(Nc2cc(F)c3c(c2)c(N(C)C)nn3C)c(C(N)=O)cc1F` [Example 2-185, (R)-6-((1-amino-4-methylpentan-2-yl)amino)-2-((3-(dimethylamino)-7-fluoro-1-methyl-1H-indazol-5-yl)amino)-5-fluoronicotinamide]: the IC50 was below 10 nM in test [1] and 130 to 200 nM in test [2].

For `COc1nn(C)c2ncc(Nc3nc(N[C@@H]4CCOC[C@@H]4N)c(F)cc3C(N)=O)cc12` [Example 2-334, 6-(((3R,4R)-3-aminotetrahydro-2H-pyran-4-yl)amino)-5-fluoro-2-((3-methoxy-1-methyl-1H-pyrazolo[3,4-b]pyridin-5-yl)amino)nicotinamide], the IC50 in test [1] is below 10 nM; in test [2] it was 130 to 200 nM.

With `CC[C@H](N)[C@@H](CC)Nc1nc(Nc2cccc3c2cnn3CC)c(C(N)=O)cc1F` [Example 2-101, 6-(((3R,4S)-4-aminohexan-3-yl)amino)-2-((1-ethyl-1H-indazol-4-yl)amino)-5-fluoronicotinamide], the figures for the IC50 in test [1] and in test [2] were below 10 nM and 130 to 200 nM, respectively.

Regarding `Cc1ccc(Nc2nc(N[C@H](C3CC3)[C@H](C)N)c(F)cc2C(N)=O)cc1C` [Example 2-481, 6-(((1R,2S)-2-amino-1-cyclopropylpropyl)amino)-2-((3,4-dimethylphenyl)amino)-5-fluoronicotinamide], the IC50 in test [1] is below 10 nM; in test [2], 65 to 130 nM.

As to `Cc1ncc(Nc2nc(N[C@@H]3CCOC[C@@H]3N)c(F)cc2C(N)=O)cc1F` [Example 2-225, 6-(((3R,4R)-3-aminotetrahydro-2H-pyran-4-yl)amino)-5-fluoro-2-((5-fluoro-6-methylpyridin-3-yl)amino)nicotinamide], the IC50 in test [1] is 10 to 50 nM; in test [2] it was 130 to 200 nM.

As for `CC[C@H](N)[C@H](Nc1nc(Nc2ccc3c(cnn3CC)c2)c(C(N)=O)cc1F)C1CC1` [Example 2-362], the IC50 was below 10 nM in test [1] and 65 to 130 nM in test [2].

For `CC[C@@H](Nc1nc(Nc2cncc(-n3cc(Cl)cn3)c2)c(C(N)=O)cc1F)[C@H](C)N` [Example 2-522, 6-(((2S,3R)-2-aminopentan-3-yl)amino)-2-((5-(4-chloro-1H-pyrazol-1-yl)pyridin-3-yl)amino)-5-fluoronicotinamide], the IC50 in test [1] lay within 10 to 50 nM; in test [2], 130 to 200 nM.

On to `NC(=O)c1cc(F)c(N[C@@H]2CCCC[C@@H]2N)nc1Nc1cccc2c1cnn2CC(F)F` [Example 2-20, 6-(((1R,2S)-2-aminocyclohexyl)amino)-2-((1-(2,2-difluoroethyl)-1H-indazol-4-yl)amino)-5-fluoronicotinamide], for which the IC50 in test [1] is below 10 nM; in test [2], 65 to 130 nM.

Take `CCC[C@@H](Nc1nc(Nc2ccc3c(c2)c(C)nn3CC(F)F)c(C(N)=O)cc1F)[C@H](C)N` [Example 2-138]: the IC50 in test [1] was below 10 nM; in test [2], below 65 nM.

For the compound `COc1cc(Nc2nc(N[C@H](C3CCC3)[C@H](C)N)c(F)cc2C(N)=O)cc(OC)n1` [Example 2-6, 6-(((1R,2S)-2-amino-1-cyclobutylpropyl)amino)-2-((2,6-dimethoxypyridin-4-yl)amino)-5-fluoronicotinamide], the figures for the IC50 in test [1] and in test [2] were below 10 nM and 130 to 200 nM, respectively.

In the case of `C[C@H](N)[C@H](Nc1nc(Nc2cccc(-n3ccnn3)c2)c(C(N)=O)cc1F)C1CC1` [Example 2-480, 2-((3-(1H-1,2,3-triazol-1-yl)phenyl)amino)-6-(((1R,2S)-2-amino-1-cyclopropylpropyl)amino)-5-fluoronicotinamide], the results for the IC50 in test [1] and in test [2] were below 10 nM and 65 to 130 nM, respectively.

On to `CCn1ncc2ccc(Nc3nc(N[C@H](CC(C)C)[C@H](C)N)c(F)cc3C(N)=O)cc21` [Example 2-11, 6-(((2S,3R)-2-amino-5-methylhexan-3-yl)amino)-2-((1-ethyl-1H-indazol-6-yl)amino)-5-fluoronicotinamide], for which the IC50 in test [1] is below 10 nM; in test [2], 130 to 200 nM.

On to `C[C@H](N)[C@H](Nc1nc(Nc2ccc(F)cc2)c(C(N)=O)cc1F)C1CC1` [Example 2-58, 6-(((1R,2S)-2-amino-1-cyclopropylpropyl)amino)-5-fluoro-2-((4-fluorophenyl)amino)nicotinamide], for which the IC50 in test [1] fell in the range of 10 to 50 nM; in test [2] it was 130 to 200 nM.

`COc1nn(C)c2ncc(Nc3nc(N[C@@H]4CCCC[C@@H]4N)c(F)cc3C(N)=O)cc12` [Example 2-249, 6-(((1R,2S)-2-aminocyclohexyl)amino)-5-fluoro-2-((3-methoxy-1-methyl-1H-pyrazolo[3,4-b]pyridin-5-yl)amino)nicotinamide]: the values for the IC50 in test [1] and in test [2] were below 10 nM and 65 to 130 nM, respectively.

For the compound `CC(C)C[C@@H](Nc1nc(Nc2ccc3cnn(C)c3c2)c(C(N)=O)cc1F)[C@H](C)N` [Example 2-37, 6-(((2S,3R)-2-amino-5-methylhexan-3-yl)amino)-5-fluoro-2-((1-methyl-1H-indazol-6-yl)amino)nicotinamide], the IC50 in test [1] was below 10 nM; in test [2] it was 65 to 130 nM.

For `CCCC[C@@H](Nc1nc(Nc2cnc3c(c2)c(OC)nn3C)c(C(N)=O)cc1F)[C@H](C)N` [Example 2-254, 6-(((2S,3R)-2-aminoheptan-3-yl)amino)-5-fluoro-2-((3-methoxy-1-methyl-1H-pyrazolo[3,4-b]pyridin-5-yl)amino)nicotinamide], the IC50 in test [1] is below 10 nM; in test [2], 130 to 200 nM.

Consider `Cc1ccc(Nc2nc(N[C@@H]3CCOC[C@@H]3N)c(F)cc2C(N)=O)cn1` [Example 2-219, 6-(((3R,4R)-3-aminotetrahydro-2H-pyran-4-yl)amino)-5-fluoro-2-((6-methylpyridin-3-yl)amino)nicotinamide], for which the figures for the IC50 in test [1] and in test [2] were 10 to 50 nM and 130 to 200 nM, respectively.

In the case of `COCCOc1cc(Nc2nc(N[C@H](C3CCC3)[C@H](C)N)c(F)cc2C(N)=O)ccn1` [Example 2-7, 6-(((1R,2S)-2-amino-1-cyclobutylpropyl)amino)-5-fluoro-2-((2-(2-methoxyethoxy)pyridin-4-yl)amino)nicotinamide], the IC50 in test [1] is below 10 nM; in test [2] it was 65 to 130 nM.

As for `COCCn1nc(C)c2cc(Nc3nc(N[C@@H](CN)CC(C)C)c(F)cc3C(N)=O)ccc21` [Example 2-130], the IC50 was below 10 nM in test [1] and 65 to 130 nM in test [2].

As to `NC(=O)c1cc(F)c(N[C@@H]2CCCC[C@@H]2N)nc1Nc1cccc(-n2ccnn2)c1` [Example 2-438, 2-((3-(1H-1,2,3-triazol-1-yl)phenyl)amino)-6-(((1R,2S)-2-aminocyclohexyl)amino)-5-fluoronicotinamide], the IC50 in test [1] is below 10 nM; in test [2], below 65 nM.

Take `CC[C@H](N)[C@@H](C)Nc1nc(Nc2cc(F)cc3c2cnn3CC)c(C(N)=O)cc1F` [Example 2-373, 6-(((2R,3S)-3-aminopentan-2-yl)amino)-2-((1-ethyl-6-fluoro-1H-indazol-4-yl)amino)-5-fluoronicotinamide]: the IC50 in test [1] was below 10 nM.

Regarding `CC[C@H](N)[C@@H](C)Nc1nc(Nc2cnc3c(c2)c(OC)nn3C)c(C(N)=O)cc1F` [Example 2-257, 6-(((2R,3S)-3-aminopentan-2-yl)amino)-5-fluoro-2-((3-methoxy-1-methyl-1H-pyrazolo[3,4-b]pyridin-5-yl)amino)nicotinamide], the IC50 in test [1] lay within 50 to 100 nM.

Take `CC[C@H](N)[C@H](Nc1nc(Nc2cnc(N3CCOCC3)c(F)c2)c(C(N)=O)cc1F)C1CC1` [Example 2-359, 6-(((1R,2S)-2-amino-1-cyclopropylbutyl)amino)-5-fluoro-2-((5-fluoro-6-morpholinopyridin-3-yl)amino)nicotinamide]: in test [1], the IC50 lay in the range of 50 to 100 nM.

As to `CC[C@H](N)[C@@H](CC)Nc1nc(Nc2cc(F)c3c(c2)c(OC)nn3C)c(C(N)=O)cc1F` [Example 2-160, 6-(((3R,4S)-4-aminohexan-3-yl)amino)-5-fluoro-2-((7-fluoro-3-methoxy-1-methyl-1H-indazol-5-yl)amino)nicotinamide], in test [1], the IC50 is below 10 nM.

For `CC[C@@H](Nc1nc(Nc2cc(F)cc3c2cnn3CC)c(C(N)=O)cc1F)[C@H](C)N` [Example 2-371, 6-(((2S,3R)-2-aminopentan-3-yl)amino)-2-((1-ethyl-6-fluoro-1H-indazol-4-yl)amino)-5-fluoronicotinamide], in test [1], the IC50 was below 10 nM.

For `Cc1ncc(Nc2nc(N[C@H](C)[C@@H](N)C3CC3)c(F)cc2C(N)=O)cc1-n1nccn1` [Example 2-226, 6-(((1S,2R)-1-amino-1-cyclopropylpropan-2-yl)amino)-5-fluoro-2-((6-methyl-5-(2H-1,2,3-triazol-2-yl)pyridin-3-yl)amino)nicotinamide], the IC50 in test [1] was 50 to 100 nM.

(Values after US9051310B2, “Nicotinamide derivative or salt thereof” (FUJIFILM Corporation, priority 2011, dated 2015).)
